From patent US20240383886A1, “Protein Tyrosine Phosphatase Degraders and Methods of Use Thereof” (CALICO LIFE SCIENCES LLC, priority 2019, published 2024)

Experiments:
[1] = biological target: T1, PTPN2 (Homo sapiens, UniProt P17706); assay: HiBiT-Degradation 293T.109 PTPN2 (Nano-Glo HiBiT Lytic Assay); format: cell-based; details: 293T.109 (HiBiT-PTPN2) cells, 24.0 hours
T1 construct: expressed in transfected cells; host or cells: 293T (293T.109 HiBiT-PTPN2 line; parental 293T WT from ATCC)
T1 sequence (P17706 1-415): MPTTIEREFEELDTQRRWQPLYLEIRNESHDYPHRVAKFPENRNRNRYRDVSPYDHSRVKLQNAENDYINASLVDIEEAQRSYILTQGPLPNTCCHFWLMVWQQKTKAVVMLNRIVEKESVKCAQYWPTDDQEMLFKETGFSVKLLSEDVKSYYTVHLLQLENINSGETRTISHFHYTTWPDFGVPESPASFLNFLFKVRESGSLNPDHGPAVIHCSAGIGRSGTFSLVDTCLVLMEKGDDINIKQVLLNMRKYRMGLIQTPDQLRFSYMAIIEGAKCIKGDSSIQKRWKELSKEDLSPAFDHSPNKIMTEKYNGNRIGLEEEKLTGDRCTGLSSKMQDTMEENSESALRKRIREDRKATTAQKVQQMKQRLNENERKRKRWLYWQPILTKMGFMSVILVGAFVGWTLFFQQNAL
How it was run: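 Luminescence from a lytic HiBiT read gave PTPN2 levels after 24 h compound exposure at 37° C. Compounds were tested at 11 half-log points from a 10 μM top concentration, in duplicate. The cells were 293T engineered with an N-terminal HiBiT–PTPN2 fusion, plated at 5000 per well, with untreated wells as negative control and no-reagent wells as positive control.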

[2] = test system: PTPN2; assay: HiBiT-Degradation B16F10.4 PTPN2; format: cell-based; details: B16F10.4 cells, 24.0 hours

| Structure (SMILES) | DC50 [1] | DC50 [2] |
| --- | --- | --- |
| Cn1c(=O)n(C2CCC(=O)NC2=O)c2ccc(C3CCN(CC(=O)N4CCC[C@@H](COc5ccc6cc(O)c(N7CC(=O)NS7(=O)=O)c(F)c6c5)C4)CC3)cc21 (stereo partly drawn) [Example 130, 3-[5-[1-[2-[(3R)-3-[[8-fluoro-6-hydroxy-7-(1,1,4-trioxo-1,2,5-thiadiazolidin-2-yl)-2-naphthyl]oxymethyl]-1-piperidyl]-2-oxo-ethyl]-4-piperidyl]-3-methyl-2-oxo-benzimidazol-1-yl]piperidine-2,6-dione] | 50 to 200 nM | 50 to 200 nM |
| Cn1c(=O)n(C2CCC(=O)NC2=O)c2ccc(Nc3ccc(NC(=O)c4ccc5c(F)c(N6CC(=O)NS6(=O)=O)c(O)cc5c4)cc3)cc21 (centres unmarked) [Example 132] | 50 to 200 nM | 200 to 1000 nM |
| Cn1c(=O)n(C2CCC(=O)NC2=O)c2ccc(C3CCN(CCn4cc(-c5ccc6cc(O)c(N7CC(=O)NS7(=O)=O)c(F)c6c5)cn4)CC3)cc21 (centres unmarked) [Example 135, 3-[5-[1-[2-[4-[8-fluoro-6-hydroxy-7-(1,1,4-trioxo-1,2,5-thiadiazolidin-2-yl)-2-naphthyl]pyrazol-1-yl]ethyl]-4-piperidyl]-3-methyl-2-oxo-benzimidazol-1-yl]piperidine-2,6-dione] | 50 to 200 nM | 50 to 200 nM |
| Cn1c(=O)n(C2CCC(=O)NC2=O)c2ccc(C3CCN(C(=O)CN4CC[C@H](COc5ccc6cc(O)c(N7CC(=O)NS7(=O)=O)c(F)c6c5)C4)CC3)cc21 (stereo partly drawn) [Example 138, 3-[5-[1-[2-[(3S)-3-[[8-fluoro-6-hydroxy-7-(1,1,4-trioxo-1,2,5-thiadiazolidin-2-yl)-2-naphthyl]oxymethyl]pyrrolidin-1-yl]acetyl]-4-piperidyl]-3-methyl-2-oxo-benzimidazol-1-yl]piperidine-2,6-dione] | 50 to 200 nM | 50 to 200 nM |
| Cn1c(=O)n(C2CCC(=O)NC2=O)c2ccc(-c3ccc(NC(=O)NCCOc4ccc5cc(O)c(N6CC(=O)NS6(=O)=O)c(F)c5c4)cc3)cc21 (centres unmarked) [Example 139, 1-[4-[1-(2,6-dioxo-3-piperidyl)-3-methyl-2-oxo-benzimidazol-5-yl]phenyl]-3-[2-[[8-fluoro-6-hydroxy-7-(1,1,4-trioxo-1,2,5-thiadiazolidin-2-yl)-2-naphthyl]oxy]ethyl]urea] | 50 to 200 nM | 50 to 200 nM |
| Cn1c(=O)n(C2CCC(=O)NC2=O)c2ccc(C3CCN(C(=O)CN4CC[C@@H](COc5ccc6cc(O)c(N7CC(=O)NS7(=O)=O)c(F)c6c5)C4)CC3)cc21 (stereo partly drawn) [Example 141, 3-[5-[1-[2-[(3R)-3-[[8-fluoro-6-hydroxy-7-(1,1,4-trioxo-1,2,5-thiadiazolidin-2-yl)-2-naphthyl]oxymethyl]pyrrolidin-1-yl]acetyl]-4-piperidyl]-3-methyl-2-oxo-benzimidazol-1-yl]piperidine-2,6-dione] | 10 to 50 nM | 50 to 200 nM |
| Cn1c(=O)n(C2CCC(=O)NC2=O)c2ccc(C3CCN(CCC(=O)N4CC[C@@H](c5ccc6cc(O)c(N7CC(=O)NS7(=O)=O)c(F)c6c5)C4)CC3)cc21 (some centres unmarked) [Example 145] | 10 to 50 nM | 50 to 200 nM |
| Cn1c(=O)n(C2CCC(=O)NC2=O)c2ccc(C3CCN(Cc4nnc(-c5ccc6c(F)c(N7CC(=O)NS7(=O)=O)c(O)cc6c5)o4)CC3)cc21 (centres unmarked) [Example 146, 3-[5-[1-[[5-[5-fluoro-7-hydroxy-6-(1,1,4-trioxo-1,2,5-thiadiazolidin-2-yl)-2-naphthyl]-1,3,4-oxadiazol-2-yl]methyl]-4-piperidyl]-3-methyl-2-oxo-benzimidazol-1-yl]piperidine-2,6-dione] | 10 to 50 nM | 200 to 1000 nM |
| Cn1c(=O)n(C2CCC(=O)NC2=O)c2ccc(C3CCN(CCN4CC[C@@H](COc5ccc6cc(O)c(N7CC(=O)NS7(=O)=O)c(F)c6c5)C4)CC3)cc21 (stereo partly drawn) [Example 149, 3-[5-[1-[2-[(3R)-3-[[8-fluoro-6-hydroxy-7-(1,1,4-trioxo-1,2,5-thiadiazolidin-2-yl)-2-naphthyl]oxymethyl]pyrrolidin-1-yl]ethyl]-4-piperidyl]-3-methyl-2-oxo-benzimidazol-1-yl]piperidine-2,6-dione] | 10 to 50 nM | 50 to 200 nM |

The remaining lines, values ahead:

| DC50 [1] | DC50 [2] | Structure (SMILES) |
| --- | --- | --- |
| 10 to 50 nM | 50 to 200 nM | Cn1c(=O)n(C2CCC(=O)NC2=O)c2ccc(C3CCN(CC(=O)N4CC[C@@H](COc5ccc6cc(O)c(N7CC(=O)NS7(=O)=O)c(F)c6c5)C4)CC3)cc21 (stereo partly drawn) [Example 131, 3-[5-[1-[2-[(3R)-3-[[8-fluoro-6-hydroxy-7-(1,1,4-trioxo-1,2,5-thiadiazolidin-2-yl)-2-naphthyl]oxymethyl]pyrrolidin-1-yl]-2-oxo-ethyl]-4-piperidyl]-3-methyl-2-oxo-benzimidazol-1-yl]piperidine-2,6-dione] |
| 10 to 50 nM | 50 to 200 nM | Cn1c(=O)n(C2CCC(=O)NC2=O)c2ccc(C3CCN(CC(=O)N4CC[C@H](COc5ccc6cc(O)c(N7CC(=O)NS7(=O)=O)c(F)c6c5)C4)CC3)cc21 (stereo partly drawn) [Example 133, 3-[5-[1-[2-[(3S)-3-[[8-fluoro-6-hydroxy-7-(1,1,4-trioxo-1,2,5-thiadiazolidin-2-yl)-2-naphthyl]oxymethyl]pyrrolidin-1-yl]-2-oxo-ethyl]-4-piperidyl]-3-methyl-2-oxo-benzimidazol-1-yl]piperidine-2,6-dione] |
| 50 to 200 nM | 200 to 1000 nM | Cn1c(=O)n(C2CCC(=O)NC2=O)c2ccc(C3CCN(CC(=O)N4CCC[C@H](COc5ccc6cc(O)c(N7CC(=O)NS7(=O)=O)c(F)c6c5)C4)CC3)cc21 (stereo partly drawn) [Example 134, 3-[5-[1-[2-[(3S)-3-[[8-fluoro-6-hydroxy-7-(1,1,4-trioxo-1,2,5-thiadiazolidin-2-yl)-2-naphthyl]oxymethyl]-1-piperidyl]-2-oxo-ethyl]-4-piperidyl]-3-methyl-2-oxo-benzimidazol-1-yl]piperidine-2,6-dione] |
| 50 to 200 nM | 50 to 200 nM | Cn1c(=O)n(C2CCC(=O)NC2=O)c2ccc(C3CCN(CCN4CCC[C@@H](COc5ccc6cc(O)c(N7CC(=O)NS7(=O)=O)c(F)c6c5)C4)CC3)cc21 (stereo partly drawn) [Example 137, 3-[5-[1-[2-[(3R)-3-[[8-fluoro-6-hydroxy-7-(1,1,4-trioxo-1,2,5-thiadiazolidin-2-yl)-2-naphthyl]oxymethyl]-1-piperidyl]ethyl]-4-piperidyl]-3-methyl-2-oxo-benzimidazol-1-yl]piperidine-2,6-dione] |
| 50 to 200 nM | ≥ 1000 nM | Cn1c(=O)n(C2CCC(=O)NC2=O)c2ccc(C3CCN(CC(=O)NCCOc4ccc5cc(O)c(N6CC(=O)NS6(=O)=O)c(F)c5c4)CC3(F)F)cc21 (centres unmarked) [Example 140, 2-[4-[1-(2,6-dioxo-3-piperidyl)-3-methyl-2-oxo-benzimidazol-5-yl]-3,3-difluoro-1-piperidyl]-N-[2-[[8-fluoro-6-hydroxy-7-(1,1,4-trioxo-1,2,5-thiadiazolidin-2-yl)-2-naphthyl]oxy]ethyl]acetamide] |
| 50 to 200 nM | 200 to 1000 nM | Cn1c(=O)n(C2CCC(=O)NC2=O)c2ccc(N3CCC(CC(=O)N4CCC[C@@H](COc5ccc6cc(O)c(N7CC(=O)NS7(=O)=O)c(F)c6c5)C4)CC3)cc21 (stereo partly drawn) [Example 142, 3-[5-[4-[2-[(3R)-3-[[8-fluoro-6-hydroxy-7-(1,1,4-trioxo-1,2,5-thiadiazolidin-2-yl)-2-naphthyl]oxymethyl]-1-piperidyl]-2-oxo-ethyl]-1-piperidyl]-3-methyl-2-oxo-benzimidazol-1-yl]piperidine-2,6-dione] |
| 200 to 1000 nM | 200 to 1000 nM | Cn1c(=O)n(C2CCC(=O)NC2=O)c2ccc(N3CCC(CC(=O)N4CCC[C@H](COc5ccc6cc(O)c(N7CC(=O)NS7(=O)=O)c(F)c6c5)C4)CC3)cc21 (stereo partly drawn) [Example 143, 3-[5-[4-[2-[(3S)-3-[[8-fluoro-6-hydroxy-7-(1,1,4-trioxo-1,2,5-thiadiazolidin-2-yl)-2-naphthyl]oxymethyl]-1-piperidyl]-2-oxo-ethyl]-1-piperidyl]-3-methyl-2-oxo-benzimidazol-1-yl]piperidine-2,6-dione] |
| 10 to 50 nM | 50 to 200 nM | Cn1c(=O)n(C2CCC(=O)NC2=O)c2ccc(C3CCN(CCC(=O)N4CC[C@H](c5ccc6cc(O)c(N7CC(=O)NS7(=O)=O)c(F)c6c5)C4)CC3)cc21 (some centres unmarked) [Example 144] |
| 200 to 1000 nM | 200 to 1000 nM | Cn1c(=O)n(C2CCC(=O)NC2=O)c2ccc(C3CCN(CCN4CCC[C@H](COc5ccc6cc(O)c(N7CC(=O)NS7(=O)=O)c(F)c6c5)C4)CC3)cc21 (stereo partly drawn) [Example 147, 3-[5-[1-[2-[(3S)-3-[[8-fluoro-6-hydroxy-7-(1,1,4-trioxo-1,2,5-thiadiazolidin-2-yl)-2-naphthyl]oxymethyl]-1-piperidyl]ethyl]-4-piperidyl]-3-methyl-2-oxo-benzimidazol-1-yl]piperidine-2,6-dione] |
| 200 to 1000 nM | 200 to 1000 nM | Cn1c(=O)n(C2CCC(=O)NC2=O)c2ccc(Nc3ccc(CNC(=O)c4ccc5c(F)c(N6CC(=O)NS6(=O)=O)c(O)cc5c4)cc3)cc21 (centres unmarked) [Example 148, N-[[4-[[1-(2,6-dioxo-3-piperidyl)-3-methyl-2-oxo-benzimidazol-5-yl]amino]phenyl]methyl]-5-fluoro-7-hydroxy-6-(1,1,4-trioxo-1,2,5-thiadiazolidin-2-yl)naphthalene-2-carboxamide] |
